# Data reported in US20110046141A1, “USE OF PDE5 INHIBITORS FOR TREATING CIRCADIAN RHYTHM DISORDERS” (CONSEJO NACIONAL DE INVESTIGACIONES CIENTIFICAS Y TECNICAS …, priority 2007, published 2011).
# Legend:
# [1] = test system: Syrian hamsters (Mesocricetus auratus); assay: Reentrainment of wheel-running activity rhythm after an abrupt 6-h advance of the LD cycle; assay type: in vivo; conditions: for time to resynchronize to the new LD cycle: saline 12±2 days; for decrease in reentrainment time: FIG. 1D
# Experimental: Animals. Male adult (3-4 month-old) Syrian hamsters (Mesocricetus auratus) were raised and maintained in a 14:10 h light-dark cycle (L:D, lights on at 0600 h), with food and water ad libitum and room temperature set at 20±2° C. All animal procedures were performed in strict accordance with NIH rules for animal care and maintenance. Activity rhythm recording. For the resynchronization experiment, animals were transferred to individual cages equipped with a running wheel (17 cm. diameter) and with light intensity averaging 200 lux at cage level. Running-wheel activity was continuously recorded for each animal using a digital system that registers wheel revolutions and stored at 5-min intervals for further analysis. Animals were initially maintained under a 14:10-h is light-dark cycle (LD, lights on at 1900 h) for at least 10 days. Then, hamsters were subjected to an abrupt 6-h advance in the phase of the LD cycle. On the day of the phase shift, intraperitoneal (i.p) injection of sildenafil or vehicle was given at zeitgeber time (ZT) 18, defining ZT 12 as the time of lights off. Time for reentrainment to the new LD cycle was defined as the time it took for each animal to adjust its activity onset with the new cycle (onset at the new time of lights off±15 minutes). Daily onsets of activity were determined. Briefly, activity onset was defined as the 10 min-bin that contained at least 80 wheel revolutions, followed by another bin of at least another 80 wheel revolutions within 40 min. The effect of 1, 3.5 or 10 mg/kg sildenafil—extracted from commercial preparations according to Francis et al. (Int. J. Impotence Res. 2003 15: 369-372) was tested at ZT 14 or 18 in comparison to vehicle administration (sterile saline).
# [2] = test system: Syrian hamsters (Mesocricetus auratus); assay: Light-induced phase advances of activity rhythm, 15-min 50 lux light pulse at CT 18 in constant dark; assay type: in vivo; conditions: for light-induced phase advance: vehicle 76±23 min
# Experimental: Animals. Male adult (3-4 month-old) Syrian hamsters (Mesocricetus auratus) were raised and maintained in a 14:10 h light-dark cycle (L:D, lights on at 0600 h), with food and water ad libitum and room temperature set at 20±2° C. All animal procedures were performed in strict accordance with NIH rules for animal care and maintenance.
# For light pulse experiments, hamsters were placed in constant dark (DD) conditions, and exposed to a 15-min white light pulse of 50 lux at either circadian time (CT) 14 or 18 (with CT 12 defined as the onset of wheel running activity in DD). Phase shifts were calculated by fitting a line (by three observers masked to the experimental procedure) through activity onsets 5 days prior and between 5 and 15 days after light exposure and then comparing these two lines on the day of the light pulse. […]
# [3] = test system: Syrian hamsters (Mesocricetus auratus); assay: Reentrainment of wheel-running activity rhythm after a 6-hr phase delay of the LD cycle; assay type: in vivo; conditions: 3.5 mg/kg i.p. at ZT 14; 6-hr delay; FIG. 3A
# Experimental: (A) Effect on reentrainment of wheel-running activity rhythm following a 6-hr phase delay of the LD cycle. Double-plotted actograms of hamster wheel-running activity showing reentrainment to a 6-hr delay of the LD cycle after the injection of vehicle (top) and sildenafil (3.5 mg/kg, i.p., middle). Injections of either saline or sildenafil were given at ZT 14 on the day of the cycle change (white star). Bottom: mean±S.E.M. (n=4 animals per group) of days needed for reentrainment. (B) Effect of sildenafil on light-induced phase delays following light pulses at CT 14. Representative actograms showing vehicle (top) or sildenafil (middle) injections. Bottom graph: Mean±S.E.M. (n=4 animals per group). Animals. Male adult (3-4 month-old) Syrian hamsters (Mesocricetus auratus) were raised and maintained in a 14:10 h light-dark cycle (L:D, lights on at 0600 h), with food and water ad libitum and room temperature set at 20±2° C. All animal procedures were performed in strict accordance with NIH rules for animal care and maintenance. Activity rhythm recording. […] Running-wheel activity was continuously recorded for each animal using a digital system that registers wheel revolutions and stored at 5-min intervals for further analysis. […] Daily onsets of activity were determined. […]
# [4] = test system: Syrian hamsters (Mesocricetus auratus); assay: Light-induced phase delays of activity rhythm, light pulse at CT 14; assay type: in vivo; conditions: FIG. 3B
# Experimental: (A) Effect on reentrainment of wheel-running activity rhythm following a 6-hr phase delay of the LD cycle. Double-plotted actograms of hamster wheel-running activity showing reentrainment to a 6-hr delay of the LD cycle after the injection of vehicle (top) and sildenafil (3.5 mg/kg, i.p., middle). Injections of either saline or sildenafil were given at ZT 14 on the day of the cycle change (white star). Bottom: mean±S.E.M. (n=4 animals per group) of days needed for reentrainment. (B) Effect of sildenafil on light-induced phase delays following light pulses at CT 14. Representative actograms showing vehicle (top) or sildenafil (middle) injections. Bottom graph: Mean±S.E.M. (n=4 animals per group). Animals. Male adult (3-4 month-old) Syrian hamsters (Mesocricetus auratus) were raised and maintained in a 14:10 h light-dark cycle (L:D, lights on at 0600 h), with food and water ad libitum and room temperature set at 20±2° C. All animal procedures were performed in strict accordance with NIH rules for animal care and maintenance. […] Phase shifts were calculated by fitting a line (by three observers masked to the experimental procedure) through activity onsets 5 days prior and between 5 and 15 days after light exposure and then comparing these two lines on the day of the light pulse. […]
# [5] = test system: cGMP levels in the hamster SCN; assay: Determination of cGMP levels in the SCN by direct enzyme immunoassay; assay type: in vivo; conditions: n=4
# Experimental: Determination of cGMP levels. Cyclic GMP content was determined using a direct enzyme immunoassay kit (Correlate-EIA #900-014, Assay Designs, Ann Arbor, Mich.). Hamsters received an injection of sildenafil (3.5 mg/kg, i.p.) or vehicle (sterile saline solution) at CT 18 and were sacrificed by decapitation 45-90 min later. The SCN were quickly punched out and immediately frozen in liquid nitrogen in order to avoid endogenous cGMP degradation. Tissue was grounded to a fine powder under liquid nitrogen and then homogenized in 0.1 M HCI. The overnight acetylated format of the kit was used. […] In order to precisely compare the effect of sildenafil on cGMP levels, the use of other phosphodiesterase inhibitors, e.g., IBMX, was avoided.
# [6] = test system: Syrian hamsters (Mesocricetus auratus); assay: Observation of sildenafil-induced penile erections in treated hamsters; assay type: in vivo; conditions: intermediate dose 3.5 mg/kg i.p.
# rats = conditions: i.p.; cited from earlier work
smiles,measurement,setting,value
"CCCc1nn(C)c2c(=O)[nH]c(-c3cc(S(=O)(=O)N4CCN(C)CC4)ccc3OCC)nc12 [sildenafil, 5-[2-ethoxy-5-(4-methyl-1-piperazinylsulphonyl)phenyl]-1-methyl-3-n-propyl-1,6-dihydro-7H-pyrazolo[4,3-d]pyrimidin-7-one]",time to resynchronize to the new LD cycle,"[1]; 1 mg/kg i.p. at ZT 18, p>0.05 vs. control",9 ± 3 days
same,decrease in reentrainment time,[1]; 1 mg/kg,25%
same,time to resynchronize to the new LD cycle,"[1]; 3.5 mg/kg i.p. at ZT 18 on day of 6-h advance, mean±SD, six animals per group, p<0.05",8 ± 1 days
same,decrease in reentrainment time,[1]; 3.5 mg/kg,33%
same,time to resynchronize to the new LD cycle,"[1]; 10 mg/kg i.p. at ZT 18, p<0.001 vs. control",6 ± 2 days
same,decrease in reentrainment time,[1]; 10 mg/kg,50%
same,light-induced phase advance,"[2]; 3.5 mg/kg i.p. 45 min prior to light pulse at CT 18, mean±SD, p<0.05",150.4 ± 64.8 min
same,post-treatment circadian period,[2]; after light-induced phase advance,did not change
same,light-induced phase advance,"[2]; injection 90 min before light pulse at CT 18, not significantly different from controls",123 ± 27 min
same,"effect on activity rhythms, drug alone",[2]; without light pulse,did not modify activity rhythms
same,effect on reentrainment rates after a delay in the LD cycle,[3],did not affect
same,effect on light-induced phase delays,[4],did not affect
same,SCN cGMP levels,"[5]; 3.5 mg/kg i.p. at CT 18, 45 minutes after injection, saline 0.37±0.20, control 0.29±0.15, mean±SD",0.63±0.08 pmol cGMP/mg protein
same,SCN cGMP levels,"[5]; 90 min after injection, saline 0.26±0.16, no increase vs controls",0.37±0.20 pmol cGMP/mg protein
same,sildenafil-induced penile erections,[6],did not manifest the effects of sildenafil-induced penile erections
same,optimal erectogenic dose,rats,5 mg/kg/day
